Experimental data as given in ChEMBL document CHEMBL1125295, “Synthesis and some pharmacological properties of potent and selective antagonists of the vasopressor (V1-receptor) response to arginine-vasopressin” (J Med Chem, 1992).
*1 amine or outer side, *2 acyl side, *3 side chain or, on linkers, in order; H or OH if unused. Where a SMILES comes first, the peptide text is derived from it. Bridges are numbered along the chain shown (N, C = ends). [ ]: non-standard residue; d: D form. NMeY = CN[C@@H](Cc1ccc(O)cc1)C(=O)O; X1 = O=C(CC1(S[*:2])CCCCC1)[*:1]

Assays:
[1] = target: Vasopressin V1 receptor (Rattus norvegicus) (UniProt P48974+P30560); assay: Dose that reduces blood pressure response in rats; assay type: functional
[2] = target: Vasopressin V2 receptor (Rattus norvegicus) (UniProt Q00788); assay: Antidiuretic activity in water-loaded rats
[3] = Ratio of antidiuretic V2 effective dose to that of vasopressin V1 effective dose; assay type: functional, Urine
[4] = target: Vasopressin V2 receptor (Rattus norvegicus) (UniProt Q00788); assay: Dose that reduces urine flow in water-loaded rats; assay type: functional

Chain of Vasopressin V2 receptor (Rattus norvegicus) (Q00788 whole entry): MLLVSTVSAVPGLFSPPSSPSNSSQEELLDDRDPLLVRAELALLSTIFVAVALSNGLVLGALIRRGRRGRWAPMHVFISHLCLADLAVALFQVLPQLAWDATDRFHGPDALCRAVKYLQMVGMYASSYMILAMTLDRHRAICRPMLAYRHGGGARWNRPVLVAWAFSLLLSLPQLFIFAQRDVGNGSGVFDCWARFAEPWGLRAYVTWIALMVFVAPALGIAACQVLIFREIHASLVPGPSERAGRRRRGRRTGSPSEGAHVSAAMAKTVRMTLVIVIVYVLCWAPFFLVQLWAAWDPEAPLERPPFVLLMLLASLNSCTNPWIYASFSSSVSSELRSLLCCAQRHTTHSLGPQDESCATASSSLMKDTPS
Chain of Vasopressin V1 receptor (Rattus norvegicus) (P30560 whole entry, looked up): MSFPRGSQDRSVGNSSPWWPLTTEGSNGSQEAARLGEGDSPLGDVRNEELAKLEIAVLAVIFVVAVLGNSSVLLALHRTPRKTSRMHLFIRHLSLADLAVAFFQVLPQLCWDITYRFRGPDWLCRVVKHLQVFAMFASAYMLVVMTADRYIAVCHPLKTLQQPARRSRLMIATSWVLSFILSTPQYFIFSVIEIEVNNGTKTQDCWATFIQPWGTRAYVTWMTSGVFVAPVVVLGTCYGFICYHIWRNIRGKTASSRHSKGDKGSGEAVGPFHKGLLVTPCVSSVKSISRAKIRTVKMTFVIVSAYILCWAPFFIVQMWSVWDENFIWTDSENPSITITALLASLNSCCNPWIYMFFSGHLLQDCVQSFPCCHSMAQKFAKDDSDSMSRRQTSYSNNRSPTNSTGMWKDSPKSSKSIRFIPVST
Chain of Vasopressin V1 receptor (Rattus norvegicus) (P48974 whole entry, looked up): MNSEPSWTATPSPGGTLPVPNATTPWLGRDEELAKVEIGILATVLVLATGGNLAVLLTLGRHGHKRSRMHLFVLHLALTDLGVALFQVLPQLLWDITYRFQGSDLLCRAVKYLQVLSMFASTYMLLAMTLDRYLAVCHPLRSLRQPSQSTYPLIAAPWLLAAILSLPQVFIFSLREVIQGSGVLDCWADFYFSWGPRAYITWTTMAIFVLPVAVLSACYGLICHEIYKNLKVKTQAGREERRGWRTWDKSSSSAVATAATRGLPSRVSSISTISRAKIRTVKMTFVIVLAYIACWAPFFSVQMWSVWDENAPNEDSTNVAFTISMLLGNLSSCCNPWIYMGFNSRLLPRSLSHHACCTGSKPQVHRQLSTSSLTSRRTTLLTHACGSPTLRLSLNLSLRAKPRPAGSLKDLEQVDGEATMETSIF

Antidiuretic activity [2] | Effective dose [4] | SMILES | Effective dose [1] | Ratio [3]
0.31 units/mg |  | CN1C(=O)CC2(CCCCC2)SSC[C@H](C(=O)N2CCC[C@H]2C(=O)N[C@@H](CCCN=C(N)N)C(=O)NCC(N)=O)NC(=O)[C@H](CC(N)=O)NC(=O)[C@H](CCC(N)=O)NC(=O)[C@H](Cc2ccccc2)NC(=O)[C@@H]1Cc1ccc(O)cc1 ([NMeY]FQN[dC]PRG-NH2; linker N-5 via X1) | 0.16 nM/kg | 
0.039 units/mg |  | CC(C)[C@H](NC(=O)[C@H](CCCN=C(N)N)NC(=O)[C@@H]1CCCN1C(=O)[C@H]1CSSC(C)(C)CC(=O)N(C)[C@@H](Cc2ccc(O)cc2)C(=O)N[C@H](Cc2ccccc2)C(=O)N[C@@H](CCC(N)=O)C(=O)N[C@H](CC(N)=O)C(=O)N1)C(N)=O | 0.6 nM/kg | 
0.029 units/mg |  | CN1C(=O)CC(C)(C)SSC[C@H](C(=O)N2CCC[C@H]2C(=O)N[C@@H](CCCN=C(N)N)C(=O)N[C@@H](Cc2ccc(O)cc2)C(N)=O)NC(=O)[C@@H](CC(N)=O)NC(=O)[C@H](CCC(N)=O)NC(=O)[C@@H](Cc2ccccc2)NC(=O)[C@@H]1Cc1ccc(O)cc1 | 0.38 nM/kg | 
0.083 units/mg |  | CN1C(=O)CC(C)(C)SSC[C@H](C(=O)N2CCC[C@H]2C(=O)N[C@@H](CCCN=C(N)N)C(=O)N[C@@H](CCCN=C(N)N)C(N)=O)NC(=O)[C@@H](CC(N)=O)NC(=O)[C@H](CCC(N)=O)NC(=O)[C@@H](Cc2ccccc2)NC(=O)[C@@H]1Cc1ccc(O)cc1 |  | 
 | 18 nM/kg | CN1C(=O)CC2(CCCCC2)SSC[C@H](C(=O)N2CCC[C@H]2C(=O)N[C@@H](CCCN=C(N)N)C(=O)N[C@@H](CCCN=C(N)N)C(N)=O)NC(=O)[C@@H](CC(N)=O)NC(=O)[C@H](CCC(N)=O)NC(=O)[C@@H](Cc2ccccc2)NC(=O)[C@@H]1Cc1ccc(O)cc1 | 0.12 nM/kg | ~150
 | 45 nM/kg | C[C@H](O)[C@H](NC(=O)[C@H](CCCN=C(N)N)NC(=O)[C@@H]1CCCN1C(=O)[C@H]1CSSC2(CCCCC2)CC(=O)N(C)[C@@H](Cc2ccc(O)cc2)C(=O)N[C@H](Cc2ccccc2)C(=O)N[C@@H](CCC(N)=O)C(=O)N[C@H](CC(N)=O)C(=O)N1)C(N)=O | 0.22 nM/kg | 
 | 84 nM/kg | CNC(=O)[C@H](CCCN=C(N)N)NC(=O)[C@@H]1CCCN1C(=O)[C@H]1CSSC2(CCCCC2)CC(=O)N(C)[C@@H](Cc2ccc(O)cc2)C(=O)N[C@H](Cc2ccccc2)C(=O)N[C@@H](CCC(N)=O)C(=O)N[C@H](CC(N)=O)C(=O)N1 | 0.12 nM/kg | 
